Measurements from PubChem BioAssay (NCI).
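Test compounds were applied to cells in 96-well plates for 48 hours at 5 doses. GI50: concentration for 50% inhibition of growth. TGI is the concentration that stops growth completely.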

Assays:
Assay in all cases: NCI tumour cell line growth inhibition, 48 h
[1] = system: LOX IMVI melanoma
[2] = system: MOLT-4 leukemia
[3] = system: HOP-92 NSCLC
[4] = system: SN12C renal
[5] = system: HCC-2998 colon
[6] = system: SF-268 CNS
[7] = system: EKVX NSCLC
[8] = system: SNB-78 CNS
[9] = system: PC-3 prostate
[10] = system: HOP-18 NSCLC

Structure (SMILES) | GI50 [1] [µM] | TGI [1] [µM] | TGI [2] [µM] | GI50 [3] [µM] | GI50 [4] [µM] | GI50 [5] [µM] | TGI [6] [µM] | TGI [7] [µM] | TGI [8] [µM] | TGI [9] [µM] | TGI [10] [µM] | TGI [3] [µM] | TGI [4] [µM] | TGI [5] [µM] | GI50 [9] [µM]
COc1cc(NCc2ccc3nc(N)nc(N)c3c2C)cc(OC)c1OC (tested in a mixture with another compound) | 0.000242 | 38.3 | 46.7 | 0.0233 | 0.000457 | 0.00957 | 66.8 | 26.6 | 116 | 37.4 | 146 | – | – | – | –
CCOc1ccccc1NC(=O)C(=O)CC(=O)c1sc(Nc2nnc(-c3ccc(Cl)c(Cl)c3)o2)nc1C | – | > 100 | > 100 | – | – | – | > 100 | > 100 | > 100 | – | > 100 | > 100 | > 100 | > 100 | –
OCC1OC(c2nc(C3=NCCCN3)cs2)C(O)C1O (centres undefined) | – | > 100 | > 100 | – | – | – | > 100 | > 100 | > 100 | – | > 100 | > 100 | > 100 | > 100 | –
CCCc1nc(NC#N)nc(C(=O)Nc2ccccc2)c1CC | – | > 100 | > 100 | – | – | – | > 100 | > 100 | > 100 | – | > 100 | > 100 | > 100 | > 100 | –
CC(=O)c1sc(Nc2nnc(-c3ccc(-c4nnc(Nc5nc(C)c(C(C)=O)s5)o4)cc3)o2)nc1C | – | > 100 | > 100 | – | – | – | > 100 | > 100 | > 100 | – | > 100 | > 100 | > 100 | > 100 | –
Cc1cc(Cl)ccc1NC(=O)C(=O)Cc1nc2ccccc2o1 | – | > 100 | > 100 | – | – | – | > 100 | > 100 | > 100 | – | > 100 | > 100 | > 100 | > 100 | –
COc1cc(NS(C)(=O)=O)ccc1Nc1c2ccccc2nc2c1[nH]c1ccc(NC3OC(CO)C(O)C(O)C3O)cc12 (centres undefined) | – | 1.18 | 3.65 | – | – | – | 1.51 | 4.98 | 9.3 | 3.6 | 1.65 | 1.04 | 0.387 | 0.809 | –
CCC(C)COC(=O)c1ccc(N=Cc2ccc(C=Nc3ccc(C(=O)OCC(C)CC)cc3)cc2)cc1 (centres undefined) | – | > 100 | > 100 | – | – | – | > 100 | > 100 | > 100 | – | > 100 | > 100 | > 100 | > 100 | –
O=C1/C(=C/c2ccc3c(c2)OCO3)SC2C=Nc3ccccc3N12 (centres undefined) | – | – | > 100 | – | – | – | > 100 | > 100 | > 100 | – | > 100 | > 100 | > 100 | > 100 | –
CC(=O)Oc1c2c(c(O)c3ccccc13)C(n1cnc3c(ncn3C3OC(CO)C4OC(C)(C)OC43)c1=N)CCC2 (centres undefined) | – | 21 | 35.9 | – | – | – | 30.7 | 36.9 | 59.6 | – | 34.6 | 39.1 | 37.9 | 28.4 | –
CCOc1ccc(NC(=O)C(=O)CC(=O)c2c(C)n([O-])c3ccccc3[n+]2=O)cc1 | – | > 100 | > 100 | – | – | – | > 100 | > 100 | > 100 | – | > 100 | > 100 | > 100 | > 100 | –
CC(=O)OC12C=CC(=O)N1c1ccccc1C(=O)O2 (centres undefined) | – | > 100 | > 100 | – | – | – | > 100 | > 100 | > 100 | > 100 | > 100 | > 100 | > 100 | > 100 | > 100
N#CC(C(=O)C(=O)C(C#N)c1ccc(Br)cc1)c1ccc(Br)cc1 (centres undefined) | – | 23.6 | 47.1 | – | – | – | 32.4 | 24.6 | 37.4 | – | 25.9 | 26.4 | 28 | 24.5 | –
Cc1ccc(NC(=O)CCc2cc(C(C)(C)C)nc(=S)[nH]2)cc1C | – | > 100 | > 100 | – | – | – | > 100 | > 100 | > 100 | – | > 100 | > 100 | > 100 | > 100 | –
CN(C)CC1CCCC/C1=N/OC(=O)c1ccc(Cl)cc1 (centres undefined) | – | > 100 | > 100 | – | – | – | > 100 | > 100 | > 100 | – | > 100 | > 100 | > 100 | > 100 | –
COc1cc2c(c(OC)c1OC)-c1ccc(SC)c(=O)cc1C(NC=O)CC2 (centres undefined) | – | > 41.1 | 48.9 | – | – | – | > 100 | > 85.2 | > 100 | > 100 | > 100 | > 100 | > 89.5 | > 100 | –
